Results taken from patent US8022075B2, “Diagnostic and remedy for disease caused by amyloid aggregation and/or deposition” (Fujifilm Ri Pharma Co., Ltd., priority 2005, dated 2011).
Where two headings read alike, the source gives them in different places.

Columns and labels:
[1] = target: T1, synthetic amyloid β (1-40) aggregates (Homo sapiens, UniProt P05067); experiment: Inhibition of binding of compound 23 to amyloid β protein aggregates; parameters: amyloid β (1-40) peptide hydrochloric acid salt; host or cells: chemically synthesised peptide; conditions: binding of 125I-labeled compound 23 to A β 1-40 aggregates, room temperature, three hours
Method: Synthetic A β peptides in a solution form undergo spontaneous aggregation in a test tube, to thereby form aggregates having the same β-sheet structure as that of amyloid aggregates present in a brain suffering from Alzheimer's disease (hereinafter, such a brain is referred to as an “Alzheimer brain”).
After ultrasonication, the mixture was gently stirred at 37° C. for four days, to thereby produce synthetic amyloid β (1-40) aggregates.
Binding test was performed in the following manner. Firstly, PBS (500 μL) and 0.2% BSA/PBS solution (100 μL) were added to test tubes. […] Reaction was initiated by adding a synthetic amyloid β (1-40) aggregates solution (concentration: 500 nmol/L, adjusted by PBS) (200 μL) to each test tube.
These samples were incubated at room temperature for three hours, and each reaction mixture was filtered by means of a cell harvester (M-24R, product of Brandel) by use of a Whatman GF/B filter (product of Whatman). The filter was washed thrice with ice-cooled PBS solution (about 2 mL) containing 0.1-mmol/L ascorbic acid.
Activity values were calculated by means of a GraphPad Prism Ver.

[2] = standard substances of liposolubility; values reported in the literature; cited from earlier work
Amyloid β (1-40) peptide [3] = target: T2, Amyloid β (1-40) peptide (Homo sapiens, UniProt P05067); experiment: Inhibitory activity on formation of amyloid from amyloid β protein (thioflavin T method); assay type: biochemical; conditions: amyloid β (1-40) 15 μmol/L, PBS(−), room temperature, one day; read-out: Aggregation inhibitory activity IC50 A β 1-40
T2 construct: amyloid β (1-40) peptide hydrochloric acid salt; host or cells: chemically synthesised peptide
Method: Amyloid β (1-40) peptide hydrochloric acid salt (product of PEPTIDE […], INC.) (15 μmol/L) and a test substance (1.6, 8, or 40 μmol/L) were incubated in PBS(−) at room temperature for one day. Thereafter, the amount of formed amyloid was measured through the thioflavin T method. […] As is clear from table 3, aggregation of amyloid β (1-40) can be prevented by the compound of the present invention.

[4] = target: T1, synthetic amyloid β (1-40) aggregates; conditions: for Bonding amount against amyloid β protein aggregate concentration: presence and absence of normal rat brain homogenate
Method: A brain tissue was removed from a normal rat, and a 5-fold amount of PBS was added to the tissue (wet state). A homogenate was produced from the mixture by use of a homogenizer. To test tubes, PBS (500 μL, in the presence of homogenate or 600 μL, in the absence of homogenate) was added. A rat brain homogenate (100 μL) was added under the presence condition of homogenate. […] Each (200 μL) of the Aβ aggregates solutions of twice-diluted series was added to each test tube, whereby reaction was initiated.
By subtracting a non-specific binding amount from the total binding amount and dividing the difference by the non-specific binding amount, an SN (Signal/Noise) ratio was calculated. The relationship between the SN ratio and amyloid β protein aggregate concentration was investigated (FIG. 2).

Amyloid β (1-40) peptide [5] = target: T2, Amyloid β (1-40) peptide; experiment: Binding of compound 24 to amyloid β (1-40) aggregated in PBS or dissolved in purified water; conditions: for Specific binding radioactivity: amyloid β 50 nmol/L
Method: Separately, amyloid β (1-40) peptide HCl salt was dissolved in purified water, to thereby prepare a 100-μmol/L amyloid β (1-40) solution. A CD spectrum of each sample solution (twice diluted) was measured at room temperature (about 25° C.) in a wavelength range of 190 to 250 nm. PBS or purified water was measured as a blank. After measurement, a blank value was subtracted from a CD value of each sample, to thereby correct the base line. From the thus-corrected CD values, secondary structure analysis was performed by means of SELCON3.
Subsequently, binding ability of the compound of the invention to amyloid β (1-40) peptide dissolved in purified water or aggregated in PBS was determined in a manner similar to that employed in Test Example 3. However, a ^125I-labeled compound 24 was employed, and no rat bran homogenate was included. The employed amyloid β concentration was 50 nmol/L at reaction.

[6] = target: Whole protein of human Alzheimer lesion origin (temporal cortex) (Homo sapiens, UniProt P05067); experiment: Calculation of binding affinity by use of Alzheimer brain; conditions: Alzheimer brain homogenate
Method: Whole protein of human Alzheimer lesion origin (temporal cortex), a commercial product of Biochain (US), was employed.
An Alzheimer brain homogenate diluted with PBS was added to each test tube, to thereby initiate reaction.
4.00 (GraphPad Software, Inc.), to thereby calculate binding parameters (Kd, Bmax).

[7] = Distribution in rat body (radioactivity in the brain); assay type: in vivo, Wistar male rats; conditions: caudal vein
Method: Wistar male rats (purchased from Japan SLC, Inc.) were conditioned for seven days, maintaining water and chow (commercial solid chow: F-2, product of Funabashi Farm) ad libitum, and the non-fasting rats were employed in the experiment (8-week-old at experiment).
Each of compound 23, compound 24, and [^125I]-IMPY was dissolved in a solution containing 40 mM ascorbic acid and 0.1% Tween80, to thereby adjust the concentration to 100 μCi/200 μL. Each sample was administered to each rat through the caudal vein under non-anesthetization. […] The brain was cut into the left and right parts, and each part was weighed. The right brain was placed in a vial, and radioactivity was measured by means of a gamma counter. The radioactivity relative to the administration amount was calculated. Specifically, radioactivity of the tissue and that divided by the tissue weight were calculated as % I.D. and % I.D./g-tissue weight, respectively.

[8] = In vitro metabolism rate by use of liver microsomes, mouse; assay type: in vitro ADME, Male CD1 mouse
Method: (§1) Liver microsomes (Pooled human Liver Microsomes, Male CD1 mouse, Male Wistar Rat), which is a commercial product of In Vitro Technologies, were employed.
(§2) Each of compound 23, compound 24, and [^125I]-IMPY was dissolved in Milli Q water, to thereby adjust the concentration to 11 μCi/mL (5 nmol/L).
(§3) To a mixture of 100 mM glucose 6-phosphate and […] NADPH solution, an equal volume of […] magnesium chloride was added. Glucose 6-phosphate dehydrogenase was employed at a final concentration of 10 unit/mL. These components were reconstituted upon use.
(§4) Method: To each of the glass test tubes, […] EDTA/0.33M potassium phosphate buffer (150 μL), Milli Q water (200 μL), 0.005 or 0.5 mg protein/mL microsome suspension (50 μL), and a test substance solution (50 μL) were added. The mixture was preliminarily incubated at 37° C. for two minutes. The above-prepared NADPH-generating system (50 μL) was added, to thereby initiate reaction. At an arbitrary point of time, an equal volume of acetonitrile was added, to thereby terminate the reaction. The reaction mixture (50 μL) was sampled into a glass tube for determining the metabolism amount, and saturated ascorbic acid ethanol solution (25 μL) was added thereto. The sample was developed by means of a reverse phase TLC (Whatman KC18F) with 80% methanol. The TLC was brought into contact with an imaging plate, and radioactivity was detected by means of BAS-1800 (product of Fuji Film Co., Ltd.). The metabolism rate was calculated through analysis by means of GraphPad Prism Ver. 4.00 (GraphPad Software, Inc.).

[9] = In vitro metabolism rate by use of liver microsomes, rat; assay type: in vitro ADME, Male Wistar Rat
Method: as §1, §2, §3, §4

[10] = In vitro metabolism rate by use of liver microsomes, human; assay type: in vitro ADME
Method: as §1, §2, §3, §4

[11] = human, in vivo; cited from earlier work
[12] = animal PET scanner; cited from earlier work
[13] = target: T3, amyloid β (1-40) aggregates formed in PBS and in MES (Homo sapiens, UniProt P05067); experiment: Correlation of β sheet amount in aggregates to binding amount of compound 23; conditions: mixtures of PBS aggregates and MES aggregates (FIG. 4)
T3 construct: amyloid β (1-40) peptide hydrochloric acid salt; host or cells: chemically synthesised peptide
Text: In order to confirm that binding of compound 23 is promoted in accordance with the β-sheet structure amount, binding amount was compared among amyloid β aggregates having different β-sheet contents.
It has already reported by Wood et al. that amyloid β (1-40) aggregated in an acidic medium assumes large aggregates having a small β-sheet structure content, and that the structure is unchanged even in a neutral pH medium (Wood S. J., J. Mol. Biol. 256(5): 870-877). According to this report, synthetic amyloid β (1-40) aggregates were prepared in PBS in a manner similar to that of Test Example 2, and such aggregates were also prepared in MES (2-morpholinoethansulfonate) buffer in a similar manner.
These samples were further diluted with PBS to 40 μmol/L. Also a PBS aggregates sample and a MES aggregates sample were diluted with PBS to 40 μmol/L respectively.
The β-sheet content of aggregate mixture samples was determined through the thioflavin T method.
The binding amount of compound 23 to an aggregate mixture (aggregates formed in PBS and those formed in MES) was determined in a manner similar to that of Test Example 5 (binding to amyloid).

[14] = read-out: Inhibitory activity (n = 3) IC50 Mean ± S.D.

T2 sequence (P05067 672-711 limits assumed): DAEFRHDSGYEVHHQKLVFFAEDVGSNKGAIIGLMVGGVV
T1 sequence (P05067 672-711 limits assumed): as above
Sequence of Whole protein of human Alzheimer lesion origin (temporal cortex) (P05067 672-713): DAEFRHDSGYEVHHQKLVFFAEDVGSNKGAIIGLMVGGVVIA
T3 sequence (P05067 672-711 limits assumed): as the sequence (P05067 672-711 limits assumed) above

CC(=C(C#N)C#N)c1ccc2cc(N(C)CCF)ccc2c1 [FDDNP, reference compound]
IC50 [1, 14]: 1050 ± 48.8 nM

CC(=O)Nc1ccc(O)cc1 [Acetaminophen]
LogD7.4 [2]: 0.51

C[C@]12CC[C@H]3[C@@H](CCC4=CC(=O)CC[C@@]43C)[C@@H]1CC[C@@H]2O [Teststeron]
LogD7.4 [2]: 3.29

5-[4-(6-Iodoimidazo[1,2-a]pyridin-2-yl)phenyl]-1,3-oxazole [Example 1]
IC50 (Amyloid β (1-40) peptide [3]): 29400 nM | IC50 [1, 14]: 1.23 ± 0.0842 nM

[123I]c1ccc2nc(-c3ccc(-c4cc[nH]n4)cc3)cn2c1 [^123I-labeled product of compound 3, [^123I]6-Iodo-2-[4-(1H-3-pyrazolyl)phenyl]imidazo[1,2-a]pyridine]
SN (Signal/Noise) ratio ([4]; compared with 123I-IMPY, presence and absence of normal rat brain homogenate (FIG. 2)): higher SN ratio | Bonding amount against amyloid β protein aggregate concentration [4]: increase in bonding amount in response to the amyloid β protein aggregate concentration

Nc1c(/N=N/c2ccc(-c3ccc(/N=N/c4cc(S(=O)(=O)O)c5ccccc5c4N)cc3)cc2)cc(S(=O)(=O)O)c2ccccc12 [Congo Red, reference compound]
IC50 [1]: > 5000 nM

Ic1ccc2nc(-c3ccc(-c4cc[nH]n4)cc3)cn2c1 [Example 3, 6-Iodo-2-[4-(1H-3-pyrazolyl)phenyl]imidazo[1,2-a]pyridine]
IC50 (Amyloid β (1-40) peptide [3]): 22300 nM | IC50 [1]: 9.72 ± 1.44 nM

[^125I]6-Iodo-2-[4-(1H-3-pyrazolyl)phenyl]imidazo[1,2-a]pyridine [Example 24]
Specific binding radioactivity (Amyloid β (1-40) peptide [5]; Solution of amyloid β (1-40) dissolved in purified water): 6300.3 cpm | Specific binding radioactivity (Amyloid β (1-40) peptide [5]; Suspension of amyloid β (1-40) aggregated in PBS): 125504.4 cpm | Specific binding to aggregates (suspension) relative to dissolved amyloid β (1-40) (solution) (Amyloid β (1-40) peptide [5]; ratio suspension in PBS / solution in purified water): about 20 times | Bmax [6]: 1.59 pmol/mg protein | Kd ([6]; 125I-labeled test compound 0.5 nmol/L): 4.05 nM | Radioactivity in the rat brain Mean ± SD ([7]; 2 min after administration): 0.760 ± 0.036 % I.D./g | Radioactivity in the rat brain Mean ± SD ([7]; 5 min after administration): 0.656 ± 0.026 % I.D./g | Radioactivity in the rat brain Mean ± SD ([7]; 15 min after administration): 0.373 ± 0.047 % I.D./g | Radioactivity in the rat brain Mean ± SD ([7]; 30 min after administration): 0.176 ± 0.009 % I.D./g | Radioactivity in the rat brain Mean ± SD ([7]; 60 min after administration): 0.053 ± 0.003 % I.D./g | Radioactivity in the rat brain Mean ± SD ([7]; 120 min after administration): 0.015 ± 0.002 % I.D./g | Rate of metabolism by liver microsomes [8]: 0.229 ± 0.061 pmol/min/mg protein | Rate of metabolism by liver microsomes [9]: 0.193 ± 0.058 pmol/min/mg protein | Rate of metabolism by liver microsomes [10]: 0.140 ± 0.057 pmol/min/mg protein

[11CH3]Nc1ccc(-c2nc3ccc(O)cc3s2)cc1 [^11C-PIB]
Difference in retention between AD patient groups [11]: at most about two-fold | Retention time, PS1/APP mice against normal mice [12]: no difference is observed in retention time

c1ccc(-c2ccc(C(c3ccccc3)n3ccnc3)cc2)cc1 (stereo not drawn) [Bifonazole]
LogD7.4 [2]: 4.77

CN(C)c1ccc(-c2cn3cc([123I])ccc3n2)cc1 [^123I-IMPY, [^123I]6-iodo-2-(4′-dimethylamino-)phenyl-imidazo[1,2-a]pyridine, reference compound]
Bonding amount against amyloid β protein aggregate concentration [4]: increase in bonding amount in response to the amyloid β protein aggregate concentration

CN/C(=N/CCSCc1nc[nH]c1C)NC#N [Cimetidine]
LogD7.4 [2]: 0.35

[125I]c1ccc2nc(-c3ccc(-c4cnco4)cc3)cn2c1 [Example 23, [^125I]5-[4-(6-Iodoimidazo[1,2-a]pyridin-2-yl)phenyl]-1,3-oxazole]
Specific binding amount against β-sheet content of aggregate mixture [13]: promoted in accordance with an increase in β-sheet content | Bmax [6]: 1.66 pmol/mg protein | Radioactivity in the rat brain Mean ± SD ([7]; 2 min after administration): 1.268 ± 0.166 % I.D./g | Radioactivity in the rat brain Mean ± SD ([7]; 5 min after administration): 1.124 ± 0.032 % I.D./g | Radioactivity in the rat brain Mean ± SD ([7]; 15 min after administration): 0.584 ± 0.077 % I.D./g | Radioactivity in the rat brain Mean ± SD ([7]; 30 min after administration): 0.273 ± 0.015 % I.D./g | Radioactivity in the rat brain Mean ± SD ([7]; 60 min after administration): 0.139 ± 0.006 % I.D./g | Radioactivity in the rat brain Mean ± SD ([7]; 120 min after administration): 0.083 ± 0.002 % I.D./g | Rate of metabolism by liver microsomes [8]: 0.480 ± 0.139 pmol/min/mg protein | Rate of metabolism by liver microsomes [9]: 0.632 ± 0.420 pmol/min/mg protein | Rate of metabolism by liver microsomes [10]: 0.944 ± 0.265 pmol/min/mg protein

Clc1cccc(Cl)c1N=C1NCCN1 [Clonidine]
LogD7.4 [2]: 0.62

Oc1ncnc2[nH]ncc12 [Allopurinol]
LogD7.4 [2]: −0.44
